From ChEMBL document CHEMBL5291721, “A preclinical secondary pharmacology resource illuminates target-adverse drug reaction associations of marketed drugs” (Nat Commun, 2023)

Tests used:
[1] = biological target: T1, Type-2 angiotensin II receptor (Homo sapiens, UniProt P50052); assay type: functional
T1 sequence (P50052 whole entry): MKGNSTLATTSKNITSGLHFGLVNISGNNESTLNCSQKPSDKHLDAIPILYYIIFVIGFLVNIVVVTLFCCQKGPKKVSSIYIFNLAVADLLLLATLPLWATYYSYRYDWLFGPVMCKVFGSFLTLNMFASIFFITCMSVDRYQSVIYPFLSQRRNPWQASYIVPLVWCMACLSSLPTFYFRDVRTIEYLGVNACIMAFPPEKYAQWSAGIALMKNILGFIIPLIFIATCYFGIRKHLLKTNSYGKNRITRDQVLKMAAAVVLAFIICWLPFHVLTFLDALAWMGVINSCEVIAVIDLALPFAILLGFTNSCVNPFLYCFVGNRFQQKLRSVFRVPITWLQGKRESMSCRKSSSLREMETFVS

[2] = biological target: T1, Type-2 angiotensin II receptor; assay type: functional; remark: listed apart in the source
[3] = biological target: T2, Histamine H1 receptor (Homo sapiens, UniProt P35367); assay type: functional, cell-based
[4] = biological target: T2, Histamine H1 receptor; assay type: functional, cell-based; remark: listed apart in the source
[5] = biological target: T3, 5-hydroxytryptamine receptor 1A (Homo sapiens, UniProt P08908)
T3 sequence (P08908 whole entry): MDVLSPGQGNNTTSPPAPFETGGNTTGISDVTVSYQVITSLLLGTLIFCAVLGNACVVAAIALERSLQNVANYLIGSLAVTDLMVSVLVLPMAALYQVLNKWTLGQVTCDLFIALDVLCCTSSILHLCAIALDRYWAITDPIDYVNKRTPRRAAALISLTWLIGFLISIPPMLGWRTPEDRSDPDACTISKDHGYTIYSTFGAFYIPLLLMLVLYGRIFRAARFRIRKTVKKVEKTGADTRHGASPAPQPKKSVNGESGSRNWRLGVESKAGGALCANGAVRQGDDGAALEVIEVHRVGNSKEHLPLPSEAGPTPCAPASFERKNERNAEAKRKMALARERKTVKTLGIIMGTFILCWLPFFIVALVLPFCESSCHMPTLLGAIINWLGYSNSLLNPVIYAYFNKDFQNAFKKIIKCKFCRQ

[6] = biological target: T4, Oxysterols receptor LXR-beta (Homo sapiens, UniProt P55055); assay type: functional
[7] = biological target: T4, Oxysterols receptor LXR-beta; assay type: functional; remark: listed apart in the source
[8] = biological target: T5, Oxysterols receptor LXR-alpha (Homo sapiens, UniProt Q13133); assay type: functional
[9] = biological target: T5, Oxysterols receptor LXR-alpha; assay type: functional; remark: listed apart in the source
[10] = biological target: T6, Peroxisome proliferator-activated receptor alpha (Homo sapiens, UniProt Q07869); assay type: functional
T6 sequence (Q07869 whole entry): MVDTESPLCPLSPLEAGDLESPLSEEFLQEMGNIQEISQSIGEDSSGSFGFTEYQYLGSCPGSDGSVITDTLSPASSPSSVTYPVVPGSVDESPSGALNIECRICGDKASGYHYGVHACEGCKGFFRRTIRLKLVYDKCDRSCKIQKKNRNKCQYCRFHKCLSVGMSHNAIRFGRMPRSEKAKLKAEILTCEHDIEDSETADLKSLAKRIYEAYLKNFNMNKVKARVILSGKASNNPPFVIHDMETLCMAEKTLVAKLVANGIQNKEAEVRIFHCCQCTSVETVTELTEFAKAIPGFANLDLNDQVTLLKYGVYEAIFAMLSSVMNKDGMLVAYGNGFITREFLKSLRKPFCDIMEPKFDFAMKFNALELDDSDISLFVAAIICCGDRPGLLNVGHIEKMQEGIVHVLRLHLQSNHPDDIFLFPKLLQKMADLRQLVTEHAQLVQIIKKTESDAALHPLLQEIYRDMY

[11] = biological target: T6, Peroxisome proliferator-activated receptor alpha; assay type: functional; remark: listed apart in the source
[12] = biological target: Retinoic acid receptor alpha (Homo sapiens, UniProt P10276); assay type: functional, cell-based
[13] = biological target: Retinoic acid receptor beta (Homo sapiens, UniProt P10826); assay type: functional, cell-based
[14] = biological target: T7, Muscarinic acetylcholine receptor M1 (Homo sapiens, UniProt P11229); assay type: functional, cell-based
T7 sequence (P11229 whole entry): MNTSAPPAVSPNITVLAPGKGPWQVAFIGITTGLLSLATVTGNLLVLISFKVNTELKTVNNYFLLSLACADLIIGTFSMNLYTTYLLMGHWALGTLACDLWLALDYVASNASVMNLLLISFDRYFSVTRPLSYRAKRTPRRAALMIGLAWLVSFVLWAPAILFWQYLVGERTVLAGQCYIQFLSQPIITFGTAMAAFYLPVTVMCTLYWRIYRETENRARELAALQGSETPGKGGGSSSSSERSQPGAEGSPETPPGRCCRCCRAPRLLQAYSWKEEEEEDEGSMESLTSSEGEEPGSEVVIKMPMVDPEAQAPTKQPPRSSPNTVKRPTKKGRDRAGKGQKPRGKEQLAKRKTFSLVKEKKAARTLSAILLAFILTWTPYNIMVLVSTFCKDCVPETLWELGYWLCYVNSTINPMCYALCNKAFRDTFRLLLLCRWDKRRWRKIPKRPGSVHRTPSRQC

[15] = biological target: T8, Muscarinic acetylcholine receptor M2 (Homo sapiens, UniProt P08172)
T8 sequence (P08172 whole entry): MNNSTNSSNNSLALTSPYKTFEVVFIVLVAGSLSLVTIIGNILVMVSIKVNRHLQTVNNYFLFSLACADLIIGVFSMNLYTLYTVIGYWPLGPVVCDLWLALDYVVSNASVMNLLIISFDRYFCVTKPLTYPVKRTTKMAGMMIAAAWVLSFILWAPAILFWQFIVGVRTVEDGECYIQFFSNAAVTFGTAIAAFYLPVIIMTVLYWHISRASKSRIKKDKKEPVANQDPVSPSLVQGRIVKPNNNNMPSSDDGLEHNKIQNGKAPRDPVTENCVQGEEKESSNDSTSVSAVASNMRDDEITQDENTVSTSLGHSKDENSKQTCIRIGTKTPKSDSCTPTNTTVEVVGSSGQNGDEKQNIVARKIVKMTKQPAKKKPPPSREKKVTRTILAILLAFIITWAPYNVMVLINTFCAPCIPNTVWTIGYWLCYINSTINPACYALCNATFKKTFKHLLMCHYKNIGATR

[16] = biological target: T7, Muscarinic acetylcholine receptor M1; assay type: functional, cell-based; remark: listed apart in the source
Further: assay procedure not described here.

T2 sequence (P35367 whole entry): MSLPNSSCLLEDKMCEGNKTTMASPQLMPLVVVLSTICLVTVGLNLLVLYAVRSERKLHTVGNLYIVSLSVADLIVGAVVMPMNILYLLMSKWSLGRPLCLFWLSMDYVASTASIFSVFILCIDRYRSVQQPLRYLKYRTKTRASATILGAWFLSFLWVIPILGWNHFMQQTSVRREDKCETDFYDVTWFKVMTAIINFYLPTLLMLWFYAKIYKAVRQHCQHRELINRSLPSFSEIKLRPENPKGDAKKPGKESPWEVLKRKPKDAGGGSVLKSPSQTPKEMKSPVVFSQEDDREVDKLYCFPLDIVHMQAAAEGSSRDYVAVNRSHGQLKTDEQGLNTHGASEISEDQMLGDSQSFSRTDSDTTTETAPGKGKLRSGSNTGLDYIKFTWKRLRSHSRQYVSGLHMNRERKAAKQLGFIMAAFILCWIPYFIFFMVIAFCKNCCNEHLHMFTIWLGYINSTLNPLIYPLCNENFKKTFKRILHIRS
T4 sequence (P55055 whole entry): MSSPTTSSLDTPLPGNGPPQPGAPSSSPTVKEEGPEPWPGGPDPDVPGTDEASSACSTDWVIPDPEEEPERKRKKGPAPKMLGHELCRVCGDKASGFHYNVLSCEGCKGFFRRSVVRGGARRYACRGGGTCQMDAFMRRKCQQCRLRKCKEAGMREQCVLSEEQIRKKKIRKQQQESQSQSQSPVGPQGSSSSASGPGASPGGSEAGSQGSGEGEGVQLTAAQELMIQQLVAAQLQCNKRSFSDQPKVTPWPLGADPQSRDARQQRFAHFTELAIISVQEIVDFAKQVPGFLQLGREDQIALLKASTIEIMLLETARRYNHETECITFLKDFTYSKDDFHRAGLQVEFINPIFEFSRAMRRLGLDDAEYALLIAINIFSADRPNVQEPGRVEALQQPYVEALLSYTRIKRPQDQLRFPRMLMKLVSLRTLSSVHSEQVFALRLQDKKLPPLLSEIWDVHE
T5 sequence (Q13133 whole entry): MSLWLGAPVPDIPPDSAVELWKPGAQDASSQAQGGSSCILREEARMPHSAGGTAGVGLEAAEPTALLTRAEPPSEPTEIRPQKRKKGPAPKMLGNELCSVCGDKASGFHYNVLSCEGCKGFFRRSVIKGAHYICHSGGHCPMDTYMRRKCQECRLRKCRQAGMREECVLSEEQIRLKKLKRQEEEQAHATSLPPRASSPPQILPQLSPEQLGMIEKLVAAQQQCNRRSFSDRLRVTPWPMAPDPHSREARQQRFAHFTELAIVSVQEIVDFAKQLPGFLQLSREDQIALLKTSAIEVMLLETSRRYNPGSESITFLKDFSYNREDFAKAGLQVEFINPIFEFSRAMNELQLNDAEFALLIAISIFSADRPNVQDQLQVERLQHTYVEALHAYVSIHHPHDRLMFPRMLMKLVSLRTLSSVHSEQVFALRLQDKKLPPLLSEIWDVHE
Chain of Retinoic acid receptor beta (P10826 whole entry): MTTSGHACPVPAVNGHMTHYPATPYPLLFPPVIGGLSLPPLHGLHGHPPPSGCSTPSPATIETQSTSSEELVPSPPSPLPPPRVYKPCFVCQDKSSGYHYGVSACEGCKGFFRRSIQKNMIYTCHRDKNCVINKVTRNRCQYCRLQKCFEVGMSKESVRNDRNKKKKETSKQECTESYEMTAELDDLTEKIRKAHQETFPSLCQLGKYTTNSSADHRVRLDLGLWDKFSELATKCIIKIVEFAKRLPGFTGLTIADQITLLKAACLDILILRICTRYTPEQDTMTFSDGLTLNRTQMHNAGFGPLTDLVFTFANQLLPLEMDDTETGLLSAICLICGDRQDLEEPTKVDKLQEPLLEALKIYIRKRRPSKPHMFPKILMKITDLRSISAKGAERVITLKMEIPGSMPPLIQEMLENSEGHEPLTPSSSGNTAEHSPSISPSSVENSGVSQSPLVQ
Chain of Retinoic acid receptor alpha (P10276 whole entry): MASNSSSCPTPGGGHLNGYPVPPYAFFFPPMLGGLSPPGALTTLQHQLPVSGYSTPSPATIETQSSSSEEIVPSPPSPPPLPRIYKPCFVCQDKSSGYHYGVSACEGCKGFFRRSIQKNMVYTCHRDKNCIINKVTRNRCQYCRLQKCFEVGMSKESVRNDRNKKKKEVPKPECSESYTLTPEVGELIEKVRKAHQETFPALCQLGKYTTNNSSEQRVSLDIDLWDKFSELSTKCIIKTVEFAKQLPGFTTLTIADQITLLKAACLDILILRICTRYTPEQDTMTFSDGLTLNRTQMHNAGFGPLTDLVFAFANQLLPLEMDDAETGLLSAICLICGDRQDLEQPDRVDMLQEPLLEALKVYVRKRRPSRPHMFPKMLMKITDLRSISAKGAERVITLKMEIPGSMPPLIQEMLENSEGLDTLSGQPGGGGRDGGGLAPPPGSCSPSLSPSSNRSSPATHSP

SMILES: CCOc1nc2cccc(C(=O)O)c2n1Cc1ccc(-c2ccccc2-c2nnn[nH]2)cc1
- AC50 [1]: 84.8 µM

SMILES: O=C(O)Cc1ccccc1Nc1c(Cl)cccc1Cl [DICLOFENAC]
- AC50 [2]: 85 µM

SMILES: O=C(O)Cc1ccccc1Oc1ccc(Cl)cc1Cl [FENCLOFENAC]
- AC50 [3]: > 30 µM
- AC50 [4]: > 30 µM

SMILES: CC[C@@H](CO)NC(=O)[C@@H]1C=C2c3cccc4c3c(cn4C)C[C@H]2N(C)C1 [METHYSERGIDE]
- AC50 [5]: 0.17 µM

SMILES: CN1Cc2c(N)cccc2C(c2ccccc2)C1 (stereo not drawn) [NOMIFENSINE]
- AC50 [3]: > 30 µM
- AC50 [4]: > 30 µM

SMILES: COc1cc(C(=O)NS(=O)(=O)c2ccccc2C)ccc1Cc1cn(C)c2ccc(NC(=O)OC3CCCC3)cc12 [ZAFIRLUKAST]
- AC50 [6]: > 30 µM
- AC50 [7]: > 30 µM
- AC50 [8]: > 30 µM
- AC50 [9]: > 30 µM
- AC50 [10]: > 30 µM
- AC50 [11]: > 30 µM
- AC50 [12]: > 30 µM
- AC50 [13]: > 30 µM

SMILES: O=C1Cc2cc(CCN3CCN(c4nsc5ccccc45)CC3)c(Cl)cc2N1 [ZIPRASIDONE]
- AC50 [14]: > 30 µM
- AC50 [15]: 6.3 µM
- AC50 [16]: 20 µM
